Earlier results, collected in patent US8859560B2, “Treating attention deficit hyperactivity disorder with NHE inhibitors” (The Research Foundation of State University of New York, priority 2012, dated 2014).

Key:
[1] = tested on: sodium/hydrogen exchanger (NHE) subtypes; details: for NHE subtype selectivity of inhibition: prior knowledge from Masereel et al. 2003
[2] = pediatric patients, extended-release tablets (Jain et al. 2011)

SMILES	NHE subtype selectivity of inhibition [1]	Inhibition of plasma membrane NHEs ([1]; plasma membrane NHEs (NHE1-NHE5))	Efficacy as drug for ADHD [2]
N=C(N)NC(=O)c1nc(Cl)c(N)nc1N [amiloride]	limited NHE subtype selectivity		
C=C[C@H]1C[N@@]2CC[C@H]1C[C@H]2[C@H](O)c1ccnc2ccc(OC)cc12 [quinine]	selectively inhibits NHE7		
Clc1cccc(Cl)c1N=C1NCCN1 [clonidine]		modest inhibitor	moderately efficacious
COc1ccc2c3c([nH]c2c1)C(C)=NCC3 [harmaline]	selectively inhibits NHE5		
CC(C)c1ccc(C(=O)NC(=N)N)cc1S(C)(=O)=O [cariporide]	selectively inhibits NHE1		
CC(=Cc1cc(C)ccc1C=C(C)C(=O)NC(=N)N)C(=O)N=C(C)C [S3226]	selectively inhibits NHE3		
